No end group written: not given here.
Experiments:
HIV-1IIIB = experiment: HIV-1 antiviral assay in CEM-SS cells (MTS readout); conditions: positive controls
[1] = test system: Primary Human endothelial cells (HUVEC); experiment: Endothelial cell migration assay; type: cell-based; conditions: 10 micrograms per ml, 22 hours
Method: Thereafter, designated concentration of testing peptides—10 micrograms per ml—was added in duplicate wells.

HCMV strain AD169 = experiment: HCMV plaque formation assay in MRC-5 cells; conditions: for inhibition of HCMV plaque formation as compared to the virus control experiment: 10 micrograms per ml, 7-10 days
Interleukin-5 (IL-5) = experiment: Th1/Th2 cytokine profiling assay, IL-5; conditions: murine spleen cells, 10 micrograms per ml
Text: (§1) The Balb/c mice (originated in 1923, it is a popular strain and is used in many different research disciplines. Also classified as an inbred from the production of 20 or more successive brother-sister matings, the Balb/c mouse is albino and small in size) were immunized on Days 1, 15, and 29 with Ovalbumin (Ovalbumin is the main protein found in egg white, commonly used to stimulate an immunological reaction in test animals) in PBS (5 micrograms/injection). On day 50, spleens of the mice were harvested (3 weeks after last boost with Ovalbumin). […] Thereafter, additional Ovalbumin was added to the cells at 10 micrograms/ml for in vitro restimulation of the cells. 72 hours later, cell supernatants were harvested and assayed using the Becton Dickinson Mouse Th1/Th2 Cytokine CBA Kit. This kit can be used to measure Interleukin-2 (IL-2), Interleukin-4 (IL-4), Interleukin-5 (IL-5), Interferon-γ (IFN-γ), and Tumor Necrosis Factor-α (TNF-α) protein levels in a single sample. The kit performance has been optimized for analysis of physiologically relevant concentrations (μg/ml levels) of specific cytokine proteins in tissue culture supernatants and serum samples.

Interleukin-2 (IL-2) = experiment: Th1/Th2 cytokine profiling assay, IL-2; conditions: murine spleen cells, 10 micrograms per ml
Text: as §1

HUVEC = experiment: Endothelial tube formation assay; type: cell-based, human; conditions: 10 micrograms per ml, 20 hours
Text: Positive control was vehicle only.

[2] = test system: hepatitis B virus (HBV) ayw strain; experiment: HBV assay in HepG2-2.2.15 cells (secreted HBV DNA, TaqMan PCR); type: cell-based; conditions: HepG2-2.2.15 liver cells, 10 micrograms per ml, six days
Human A549 cells = experiment: Apoptosis prevention assay (C2 ceramide, Annexin-5); type: cell-based; conditions: 10 micrograms per ml pretreatment 30 min
[3] = test system: Tumor Necrosis Factor-α (TNF-α); experiment: Th1/Th2 cytokine profiling assay, TNF-α; conditions: murine spleen cells, 10 micrograms per ml; for change of the production of TNF-alpha: Ovalbumin restimulation, 72 hours
Text: (§2) The Balb/c mice (originated in 1923, it is a popular strain and is used in many different research disciplines. Also classified as an inbred from the production of 20 or more successive brother-sister matings, the Balb/c mouse is albino and small in size) were immunized on Days 1, 15, and 29 with Ovalbumin (Ovalbumin is the main protein found in egg white, commonly used to stimulate an immunological reaction in test animals) in PBS (5 micrograms/injection). On day 50, spleens of the mice were harvested (3 weeks after last boost with Ovalbumin). […] Thereafter, additional Ovalbumin was added to the cells at 10 micrograms/ml for in vitro restimulation of the cells. 72 hours later, cell supernatants were harvested and assayed using the Becton Dickinson Mouse Th1/Th2 Cytokine CBA Kit. This kit can be used to measure Interleukin-2 (IL-2), Interleukin-4 (IL-4), Interleukin-5 (IL-5), Interferon-γ (IFN-γ), and Tumor Necrosis Factor-α (TNF-α) protein levels in a single sample.

RAW 264.7 cells = experiment: Phagocytosis assay (Fluorescein-labeled Escherichia coli, flow cytometry); type: cell-based, Mouse; conditions: 10 micrograms per ml, Fluorescein-labeled E. coli
Method: RAW 264.7 (Mouse leukaemic monocyte macrophage cell line) cells were obtained from ATCC and grown in RPMI 1640 medium containing 10% FBS. […] After the cells were incubated for additional 60 min at 37° C. and allowed to ingest the Fluorescein-labeled Escherichia coli bacteria, cells were fixed with 1% paraformaldehyde. The samples were then analyzed by flow cytometry to determine the amount of phagocytosis as a function of brightness (the greater the phagocytic activity, the more fluorescence in the macrophage population). Data are reported as % positive and the mean fluorescence intensity (MFI) of positively stained cells.

Interferon-γ (IFN-γ) = experiment: Th1/Th2 cytokine profiling assay, IFN-γ; conditions: murine spleen cells, 10 micrograms per ml; for induction of the production of IFN-γ: Ovalbumin restimulation, 72 hours
Text: as §2

Interleukin-4 (IL-4) = experiment: Th1/Th2 cytokine profiling assay, IL-4; conditions: murine spleen cells, 10 micrograms per ml
Text: as §1

[4] = Ovalbumin restimulation, 72 hours

| Compound | antiviral activity of positive control compounds (HIV-1IIIB) | inhibition of HCMV plaque formation as compared to the virus control experiment (HCMV strain AD169) | IL-5 spleen cells; TH2 response (% of control) (Interleukin-5 (IL-5)) | IL-2 spleen cells (% of control) (Interleukin-2 (IL-2)) | inhibition of HBV replication as compared to the virus control infection [2] | reduction of the ceramide-induced apoptosis on human lung cells (Human A549 cells) | TNF-a spleen cells; TH1 response (% of control) [3] | change of the production of TNF-alpha [3] | induction of phagocytosis as compared to the control experiment (RAW 264.7 cells) | IFNγ spleen cells; TH1 response (% of control) (Interferon-γ (IFN-γ)) | induction of the production of IFN-γ (Interferon-γ (IFN-γ)) | IL-4 spleen cells; TH2 response (% of control) (Interleukin-4 (IL-4)) | also measured |
| --- | --- | --- | --- | --- | --- | --- | --- | --- | --- | --- | --- | --- | --- |
| CC(C)(C)NC(=O)[C@@H]1CN(Cc2cccnc2)CCN1C[C@@H](O)C[C@@H](Cc1ccccc1)C(=O)N[C@H]1c2ccccc2C[C@H]1O [indinavir] | expected levels of antiviral activity |  |  |  |  |  |  |  |  |  |  |  |  |
| Cc1cn([C@H]2C[C@H](N=[N+]=[N-])[C@@H](CO)O2)c(=O)[nH]c1=O [AZT] | expected levels of antiviral activity |  |  |  |  |  |  |  |  |  |  |  |  |
| Met-Ala-Pro-Arg-Gly-Phe-Ser-Cys-Leu-Leu-Leu-Leu-Thr-Ser-Glu-Ile-Asp-Leu-Pro-Val-Lys-Arg-Arg-Ala-OH (MAPRGFSCLLLLTSEIDLPVKRRA-OH) [peptide 1] |  | 3.2% | 63.5 % of control | 50.6 % of control | 3.9% | 10.7% | 104.2 % of control | did not significantly change | 94.3% | 122.3 % of control | 22.3% | 75.1 % of control | inhibition of the migration of human endothelial cells [1]: 3%; decrease of the production of IL-5 (Interleukin-5 (IL-5); [4]): 36.5%; decrease of the production of IL-2 (Interleukin-2 (IL-2); [4]): 49.4%; induction of the tube formation of human endothelial cells (HUVEC): 23%; change of the production of IL-4 (Interleukin-4 (IL-4); [4]): did not significantly change |
| Tyr-Gly-Gly-Phe-Leu-Arg-Lys-Tyr-Pro-Lys-OH (YGGFLRKYPK-OH) [peptide 2] |  | 6.9% | 67.5 % of control | 141.5 % of control | no effect | 17.9% | 101.0 % of control | did not significantly change | 54.3% | 130.3 % of control | 30.3% | 170.6 % of control | induction of the migration of human endothelial cells [1]: 11%; change of the production of IL-5 (Interleukin-5 (IL-5); [4]): did not significantly change; induction of the production of IL-2 (Interleukin-2 (IL-2); [4]): 41.5%; inhibition of the tube formation of human endothelial cells (HUVEC): 5%; induction of the production of IL-4 (Interleukin-4 (IL-4); [4]): 70.6% |
| Nc1nc(O)c2ncn(COC(CO)CO)c2n1 [Ganciclovir, reference compound] |  |  |  |  |  |  |  |  |  |  |  |  | antiviral activity of positive control compound (HCMV strain AD169; HCMV AD169, positive control): expected levels of antiviral activity |

From patent US20100197599A1, “USE OF A PEPTIDE AS A THERAPEUTIC AGENT” (priority 2007, published 2010)
